pEC50, pIC50: −log10 of the molar value. Read-outs that look alike come from different tables or passages of the source.
Columns and labels:
[1] = test system: HIV-1 infected H9 lymphocytes; conditions: cited from earlier work
HIV = conditions: cited from earlier work
HIV-1 [2] = conditions: cited from earlier work
HIV-1 (wild type, S1) = assay: microbe, parasite or virus in culture; assay type: cell-based
Procedure: Biological testing of compounds is based on the determination of their cytotoxicity, including determination of CC50 and CC90 (Cytotoxity Concentration) and the assessment of the ability to inhibit viral replication in cell cultures and the determination of IC50 and IC90 (Inhibitory Concentration). Cytotoxicity of compounds is assessed in cultures of established lymphoid CEMT4 cell lines using the MTT method. […] The cultures are run in triplicate for every concentration of the tested compounds. HIV replication inhibition by the studied compounds is assessed in cultures of established lymphoid CEMT4 cell lines. Cells are incubated for 24 hours in a medium (RPMI 10% FBS) supplemented with known concentrations of the tested preparations. The cells are then infected with a laboratory isolate of HIV-1 (wild type, S1). The cultures are prepared in triplicate for every concentration of the tested compound. […] HIV inhibiting ability is determined after 7 days of growing the culture by determining the viral p24 protein in the medium above the cells. […] Inhibition of replication is measured by reducing the amount of p24 protein in cultures enriched in test compounds with respect to the amount of p24 in a culture carried out in a standard medium. The amount of p24 viral protein is determined using an anti-p24 immunoenzymatic test. […]

HIV-1 [3] = conditions: inhibiting the HIV-1 replication; cited from earlier work
[4] = Cytotoxicity in lymphoid CEMT4 cell cultures, MTT method; assay type: cell-based; conditions: human, CEMT4 cells, viability relative to control cultures
Procedure: Biological testing of compounds is based on the determination of their cytotoxicity, including determination of CC50 and CC90 (Cytotoxity Concentration) and the assessment of the ability to inhibit viral replication in cell cultures and the determination of IC50 and IC90 (Inhibitory Concentration). Cytotoxicity of compounds is assessed in cultures of established lymphoid CEMT4 cell lines using the MTT method. […] The cultures are run in triplicate for every concentration of the tested compounds. HIV replication inhibition by the studied compounds is assessed in cultures of established lymphoid CEMT4 cell lines. Cells are incubated for 24 hours in a medium (RPMI 10% FBS) supplemented with known concentrations of the tested preparations. The cells are then infected with a laboratory isolate of HIV-1 (wild type, S1). The cultures are prepared in triplicate for every concentration of the tested compound. Cultures containing identical number of infected cells grown in a medium not containing the tested substances are used as a positive control (100% viral replication). HIV inhibiting ability is determined after 7 days of growing the culture by determining the viral p24 protein in the medium above the cells. The amount of the protein corresponds to the number of newly synthesized viruses. Inhibition of replication is measured by reducing the amount of p24 protein in cultures enriched in test compounds with respect to the amount of p24 in a culture carried out in a standard medium. The amount of p24 viral protein is determined using an anti-p24 immunoenzymatic test. The results are presented in the form of CC50, IC50 and TI (Therapeutic Index) values. Table 1. Results of determination of anti-HIV activity of synthesized compounds and of the reference compound, AZT

Compound: 3-O-(3,3'-dimethylsuccinyl)betulinic acid [Item 3]
- pEC50 [1]: 8.46

Compound: C=C(C)[C@@H]1CC[C@]2(COC(=O)CC(C)(C)CC(=O)O)CC[C@]3(C)[C@H](CC[C@@H]4[C@@]5(C)CC[C@H](OC(=O)CC(C)(C)CC(=O)O)C(C)(C)[C@@H]5CC[C@]43C)[C@@H]12 [3,28-di-O-(3',3'-dimethylglutaryl)betulin]
- pEC50 (HIV): 9.18

Compound: C=C(C)[C@@H]1CC[C@]2(COC(=O)C(C)(C)CC(=O)O)CC[C@]3(C)[C@H](CC[C@@H]4[C@@]5(C)CC[C@H](OC(=O)CC(C)(C)C(=O)O)C(C)(C)[C@@H]5CC[C@]43C)[C@@H]12 [3-O-(3',3'-dimethylsuccinyl)-28-O-(2",2"-dimethylsuccinyl)betulin]
- pEC50 (HIV): 9.06

Compound: C=C(C)[C@@H]1CC[C@]2(CO)CC[C@]3(C)[C@H](CC[C@@H]4[C@@]5(C)CC[C@H](O)C(C)(C)[C@@H]5CC[C@]43C)[C@@H]12 [Item 1, lup-20(29)-ene-3β,28-diol]
- activity against HIV-1 (HIV-1 [2]): weak activity

Compound: C=C(C)[C@@H]1CC[C@]2(CO)CC[C@]3(C)[C@H](CC[C@@H]4[C@@]5(C)CC[C@H](O)C(C)(C)[C@@H]5CC[C@]43C)[C@@H]12 [Item 1]
- IC50 (HIV-1 (wild type, S1)): NO

Compound: C=C(C)[C@@H]1CC[C@]2(C(=O)O)CC[C@]3(C)[C@H](CC[C@@H]4[C@@]5(C)CC[C@H](O)C(C)(C)[C@@H]5CC[C@]43C)[C@@H]12 [Item 2, (3β)-3-hydroxy-lup-20(29)-en-28-oic acid]
- pEC50 (HIV-1 [3]): 5.80
- activity against HIV-1 (HIV-1 [2]): weak activity

Compound: C=C(C)[C@@H]1CC[C@]2(C(=O)O)CC[C@]3(C)[C@H](CC[C@@H]4[C@@]5(C)CC[C@H](O)C(C)(C)[C@@H]5CC[C@]43C)[C@@H]12 [Item 2]
- CC50 [4]: 5000 nM

Compound: C=C(C)[C@@H]1CC[C@]2(C(=O)O)CC[C@]3(C)[C@H](CC[C@@H]4[C@@]5(C)CC[C@H](OC(=O)CC(C)(C)C(=O)O)C(C)(C)[C@@H]5CC[C@]43C)[C@@H]12 [Item 3]
- pIC50 (HIV-1 (wild type, S1); Human immunodeficiency virus 1, CEM-T4): 7.52

Compound: C=C(CP(=O)(OCC)OCC)[C@@H]1CC[C@]2(C(=O)O)CC[C@]3(C)[C@H](CC[C@@H]4[C@@]5(C)CC[C@H](OC(=O)CC(C)(C)C(=O)O)C(C)(C)[C@@H]5CC[C@]43C)[C@@H]12 [Item 5]
- CC50 [4]: > 69000 nM

Compound: C=C(CP(=O)(OCC)OCC)[C@@H]1CC[C@]2(C(=O)O)CC[C@]3(C)[C@H](CC[C@@H]4[C@@]5(C)CC[C@H](OC(=O)CCC(C)(C)C(=O)O)C(C)(C)[C@@H]5CC[C@]43C)[C@@H]12 [Item 6]
- CC50 [4]: > 68000 nM

Compound: C=C(CP(=O)(OCC)OCC)[C@@H]1CC[C@]2(C(=O)O)CC[C@]3(C)[C@H](CC[C@@H]4[C@@]5(C)CC[C@H](OC(=O)CC(C)(C)CC(=O)O)C(C)(C)[C@@H]5CC[C@]43C)[C@@H]12 [Item 7]
- CC50 [4]: > 68000 nM

Compound: CCOP(=O)(C=C(C)[C@@H]1CC[C@]2(C(=O)O)CC[C@]3(C)[C@H](CC[C@@H]4[C@@]5(C)CC[C@H](OC(=O)CC(C)(C)C(=O)O)C(C)(C)[C@@H]5CC[C@]43C)[C@@H]12)OCC [Item 9]
- CC50 [4]: > 69000 nM

Compound: CCOP(=O)(C=C(C)[C@@H]1CC[C@]2(C(=O)O)CC[C@]3(C)[C@H](CC[C@@H]4[C@@]5(C)CC[C@H](OC(=O)CCC(C)(C)C(=O)O)C(C)(C)[C@@H]5CC[C@]43C)[C@@H]12)OCC [Item 10]
- CC50 [4]: > 68000 nM

Compound: CCOP(=O)(C=C(C)[C@@H]1CC[C@]2(C(=O)O)CC[C@]3(C)[C@H](CC[C@@H]4[C@@]5(C)CC[C@H](OC(=O)CC(C)(C)CC(=O)O)C(C)(C)[C@@H]5CC[C@]43C)[C@@H]12)OCC [Item 11]
- CC50 [4]: > 68000 nM

Compound: Cc1cn([C@H]2C[C@H](N=[N+]=[N-])[C@@H](CO)O2)c(=O)[nH]c1=O [Item 12]
- CC50 [4]: > 280000 nM

Compound: C=C(C)[C@@H]1CC[C@]2(C(=O)O)CC[C@]3(C)[C@H](CC[C@@H]4[C@@]5(C)CCC(=O)C(C)(C)[C@@H]5CC[C@]43C)[C@@H]12 [betulonic acid]
- activity against HIV-1 (HIV-1 [2]): weak activity

Compound: CC(C)[C@@H]1CC[C@]2(C(=O)O)CC[C@]3(C)C(CCC4[C@@]5(C)CC[C@H](O)C(C)(C)C5CC[C@]43C)C12 (stereo partly drawn) [dihydrobetulinic acid]
- pEC50 (HIV-1 [3]): 6.05
